In the NIST ThermoML archive (doi:10.1016/j.fluid.2015.04.021):

Assay: cn = amount concentration of the nth substance listed, in mol/dm3
Conditions: 101.3 kPa, Liquid; for viscosity: Falling or rolling sphere viscometry; for mass density: Vibrating tube method

NCCCC[C@H](N)C(=O)[O-].[K+] [potassium L-lysinate] + O
Conditions | mass density [kg/m3] | viscosity [mPa·s]
298.15 K, c1 = 0.2001 | 1010.5 | 1.003
298.15 K, c1 = 0.25 | 1017.5 | 1.008
298.15 K, c1 = 0.5 | 1028.2 | 1.29
298.15 K, c1 = 0.75 | 1043.2 | 1.348
298.15 K, c1 = 1.008 | 1056 | 1.575
298.15 K, c1 = 1.529 | 1084.8 | 2.286
298.15 K, c1 = 1.79 | 1111 | 3.236
298.15 K, c1 = 2 | 1121.6 | 3.564
298.15 K, c1 = 2.5 | 1141.9 | 5.406
298.15 K, c1 = 3 | 1151 | 8.407
303.15 K, c1 = 0.2001 | 1009 | 0.8978
303.15 K, c1 = 0.25 | 1016 | 0.9023
303.15 K, c1 = 0.5 | 1027.1 | 1.158
303.15 K, c1 = 0.75 | 1041.4 | 1.2
303.15 K, c1 = 1.008 | 1054.1 | 1.397
303.15 K, c1 = 1.529 | 1082.7 | 2.007
303.15 K, c1 = 1.79 | 1108.6 | 2.805
303.15 K, c1 = 2 | 1119.1 | 3.054
303.15 K, c1 = 2.5 | 1139.1 | 4.597
303.15 K, c1 = 3 | 1148.3 | 7.027
308.15 K, c1 = 0.2001 | 1007.3 | 0.8095
308.15 K, c1 = 0.25 | 1014.2 | 0.8125
308.15 K, c1 = 0.5 | 1025.2 | 1.045
308.15 K, c1 = 0.75 | 1039.5 | 1.075
308.15 K, c1 = 1.008 | 1052 | 1.247
308.15 K, c1 = 1.529 | 1080.4 | 1.774
308.15 K, c1 = 1.79 | 1106 | 2.454
308.15 K, c1 = 2 | 1116.5 | 2.676
308.15 K, c1 = 2.5 | 1136.4 | 3.95
308.15 K, c1 = 3 | 1145.5 | 5.946
313.15 K, c1 = 0.2001 | 1005.4 | 0.7344
313.15 K, c1 = 0.25 | 1012.3 | 0.7377
313.15 K, c1 = 0.5 | 1023.2 | 0.9512
313.15 K, c1 = 0.75 | 1037.3 | 0.9697
313.15 K, c1 = 1.008 | 1049.8 | 1.121
313.15 K, c1 = 1.529 | 1077.9 | 1.581
313.15 K, c1 = 1.79 | 1103.4 | 2.173
313.15 K, c1 = 2 | 1113.8 | 2.358
313.15 K, c1 = 2.5 | 1133.5 | 3.433
313.15 K, c1 = 3 | 1142.6 | 5.094
318.15 K, c1 = 0.2001 | 1003.3 | 0.6711
318.15 K, c1 = 0.25 | 1010.2 | 0.6737
318.15 K, c1 = 0.5 | 1021 | 0.866
318.15 K, c1 = 0.75 | 1035.1 | 0.8813
318.15 K, c1 = 1.008 | 1047.5 | 1.014
318.15 K, c1 = 1.529 | 1075.4 | 1.418
318.15 K, c1 = 1.79 | 1100.8 | 1.934
318.15 K, c1 = 2 | 1111 | 2.116
318.15 K, c1 = 2.5 | 1130.6 | 3.008
318.15 K, c1 = 3 | 1139.7 | 4.407
323.15 K, c1 = 0.2001 | 1001.1 | 0.6168
323.15 K, c1 = 0.25 | 1007.9 | 0.6185
323.15 K, c1 = 0.5 | 1018.6 | 0.796
323.15 K, c1 = 0.75 | 1032.7 | 0.804
323.15 K, c1 = 1.008 | 1045 | 0.9223
323.15 K, c1 = 1.529 | 1072.8 | 1.28
323.15 K, c1 = 1.79 | 1098.1 | 1.735
323.15 K, c1 = 2 | 1108.1 | 1.916
323.15 K, c1 = 2.5 | 1127.6 | 2.659
323.15 K, c1 = 3 | 1136.7 | 3.852
328.15 K, c1 = 0.2001 | 998.6 | 0.5697
328.15 K, c1 = 0.25 | 1005.4 | 0.5705
328.15 K, c1 = 0.5 | 1016.2 | 0.7351
328.15 K, c1 = 0.75 | 1030.1 | 0.7388
328.15 K, c1 = 1.008 | 1042.4 | 0.8431
328.15 K, c1 = 1.529 | 1070.1 | 1.162
328.15 K, c1 = 1.79 | 1095.2 | 1.566
328.15 K, c1 = 2 | 1105.2 | 1.757
328.15 K, c1 = 2.5 | 1124.6 | 2.368
328.15 K, c1 = 3 | 1133.7 | 3.394
333.15 K, c1 = 0.2001 | 995.6 | 0.5292
333.15 K, c1 = 0.25 | 1002.8 | 0.5294
333.15 K, c1 = 0.5 | 1013.7 | 0.6833
333.15 K, c1 = 0.75 | 1027.5 | 0.6798
333.15 K, c1 = 1.008 | 1039.7 | 0.7748
333.15 K, c1 = 1.529 | 1067.2 | 1.061
333.15 K, c1 = 1.79 | 1092.3 | 1.421
333.15 K, c1 = 2 | 1102.2 | 1.621
333.15 K, c1 = 2.5 | 1121.5 | 2.136
333.15 K, c1 = 3 | 1130.6 | 3.012
338.15 K, c1 = 0.2001 | 993.4 | 0.4937
338.15 K, c1 = 0.25 | 1002.8 | 0.4939
338.15 K, c1 = 0.5 | 1011 | 0.6409
338.15 K, c1 = 0.75 | 1024.7 | 0.629
338.15 K, c1 = 1.008 | 1036.9 | 0.7155
338.15 K, c1 = 1.529 | 1064.3 | 0.9729
338.15 K, c1 = 1.79 | 1089.3 | 1.296
338.15 K, c1 = 2 | 1099.1 | 1.501
338.15 K, c1 = 2.5 | 1118.3 | 1.927
338.15 K, c1 = 3 | 1127.5 | 2.693
343.15 K, c1 = 0.2001 | 990.6 | 0.4633
343.15 K, c1 = 0.25 | 997.3 | 0.463
343.15 K, c1 = 0.5 | 1008.1 | 0.6042
343.15 K, c1 = 0.75 | 1021.8 | 0.5855
343.15 K, c1 = 1.008 | 1033.9 | 0.6637
343.15 K, c1 = 1.529 | 1061.3 | 0.8961
343.15 K, c1 = 1.79 | 1086.3 | 1.188
343.15 K, c1 = 2 | 1096 | 1.435
343.15 K, c1 = 2.5 | 1115 | 1.748
343.15 K, c1 = 3 | 1124.3 | 2.423
348.15 K, c1 = 0.2001 | 987.7 | 0.4359
348.15 K, c1 = 0.25 | 994.3 | 0.4358
348.15 K, c1 = 0.5 | 1005.2 | 0.5715
348.15 K, c1 = 0.75 | 1018.7 | 0.5472
348.15 K, c1 = 1.008 | 1030.9 | 0.6181
348.15 K, c1 = 1.529 | 1058.2 | 0.8306
348.15 K, c1 = 1.79 | 1083.2 | 1.095
348.15 K, c1 = 2 | 1092.7 | 1.346
348.15 K, c1 = 2.5 | 1111.8 | 1.594
348.15 K, c1 = 3 | 1121.1 | 2.208

O=C([O-])[C@@H]1CCCN1.[K+] [potassium L-prolinate] + O
Conditions | mass density [kg/m3] | viscosity [mPa·s]
298.15 K, c1 = 0.5001 | 1026.6 | 1.105
298.15 K, c1 = 1 | 1054.7 | 1.38
298.15 K, c1 = 1.5 | 1088 | 1.861
298.15 K, c1 = 2 | 1111.4 | 2.293
298.15 K, c1 = 2.5 | 1145.8 | 3.181
298.15 K, c1 = 3 | 1166.9 | 4.054
303.15 K, c1 = 0.5001 | 1025.2 | 0.9857
303.15 K, c1 = 1 | 1053 | 1.232
303.15 K, c1 = 1.5 | 1086.4 | 1.642
303.15 K, c1 = 2 | 1109.2 | 2.028
303.15 K, c1 = 2.5 | 1143.2 | 2.755
303.15 K, c1 = 3 | 1164.1 | 3.491
308.15 K, c1 = 0.5001 | 1023.5 | 0.8913
308.15 K, c1 = 1 | 1051 | 1.103
308.15 K, c1 = 1.5 | 1084.5 | 1.465
308.15 K, c1 = 2 | 1107 | 1.794
308.15 K, c1 = 2.5 | 1140.6 | 2.409
308.15 K, c1 = 3 | 1161.3 | 3.038
313.15 K, c1 = 0.5001 | 1021.6 | 0.8086
313.15 K, c1 = 1 | 1049 | 0.9949
313.15 K, c1 = 1.5 | 1082.2 | 1.31
313.15 K, c1 = 2 | 1104.7 | 1.601
313.15 K, c1 = 2.5 | 1137.9 | 2.136
313.15 K, c1 = 3 | 1158.4 | 2.662
318.15 K, c1 = 0.5001 | 1019.6 | 0.7351
318.15 K, c1 = 1 | 1046.8 | 0.9035
318.15 K, c1 = 1.5 | 1081.2 | 1.2
318.15 K, c1 = 2 | 1102.5 | 1.439
318.15 K, c1 = 2.5 | 1135.1 | 1.903
318.15 K, c1 = 3 | 1155.5 | 2.354
323.15 K, c1 = 0.5001 | 1017.6 | 0.6741
323.15 K, c1 = 1 | 1044.5 | 0.8251
323.15 K, c1 = 1.5 | 1078.8 | 1.085
323.15 K, c1 = 2 | 1100.4 | 1.296
323.15 K, c1 = 2.5 | 1132.2 | 1.707
323.15 K, c1 = 3 | 1152.5 | 2.102
328.15 K, c1 = 0.5001 | 1015.2 | 0.6219
328.15 K, c1 = 1 | 1042.2 | 0.7569
328.15 K, c1 = 1.5 | 1076.6 | 0.9922
328.15 K, c1 = 2 | 1098.5 | 1.196
328.15 K, c1 = 2.5 | 1129.2 | 1.541
328.15 K, c1 = 3 | 1149.4 | 1.887
333.15 K, c1 = 0.5001 | 1012.8 | 0.5764
333.15 K, c1 = 1 | 1039.9 | 0.7002
333.15 K, c1 = 1.5 | 1074.7 | 0.9175
333.15 K, c1 = 2 | 1095.8 | 1.093
333.15 K, c1 = 2.5 | 1126.2 | 1.4
333.15 K, c1 = 3 | 1146.3 | 1.704
338.15 K, c1 = 0.5001 | 1010.4 | 0.5373
338.15 K, c1 = 1 | 1037.4 | 0.6493
338.15 K, c1 = 1.5 | 1073.7 | 0.8552
338.15 K, c1 = 2 | 1093.6 | 1.009
338.15 K, c1 = 2.5 | 1123 | 1.278
338.15 K, c1 = 3 | 1143.1 | 1.549
343.15 K, c1 = 0.5001 | 1008 | 0.5039
343.15 K, c1 = 1 | 1035.5 | 0.608
343.15 K, c1 = 1.5 | 1071.9 | 0.7966
343.15 K, c1 = 2 | 1094.3 | 0.9587
343.15 K, c1 = 2.5 | 1119.9 | 1.173
343.15 K, c1 = 3 | 1139.8 | 1.414
348.15 K, c1 = 0.5001 | 1005.6 | 0.4733
348.15 K, c1 = 1 | 1035.7 | 0.5792
348.15 K, c1 = 1.5 | 1070.5 | 0.7486
348.15 K, c1 = 2 | 1092.4 | 0.8972
348.15 K, c1 = 2.5 | 1116.6 | 1.082
348.15 K, c1 = 3 | 1136.5 | 1.299
